# Article PMC11968987 (Nature Communications, 2025)
# Biological target: SAT1 (flag-tagged recombinant SAT1) (Homo sapiens, UniProt P21673)
# Experiment: DTNB-coupled SAT1 activity assay, Lineweaver-Burk plot
# Format: biochemical
# Conditions: co-substrate histone H3 (200 ng); pH 8.0, 35 °C; no ginkgolide B
# SAT1 (flag-tagged recombinant SAT1), sequence (P21673 whole entry): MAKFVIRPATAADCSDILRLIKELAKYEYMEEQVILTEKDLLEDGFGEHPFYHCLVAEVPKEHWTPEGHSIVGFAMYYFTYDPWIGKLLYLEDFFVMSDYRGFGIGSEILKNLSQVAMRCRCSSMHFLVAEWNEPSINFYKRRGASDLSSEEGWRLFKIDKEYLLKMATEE
smiles,measurement,value
CC(=O)SCCNC(=O)CCNC(=O)[C@H](O)C(C)(C)COP(=O)(O)OP(=O)(O)OC[C@H]1O[C@@H](n2cnc3c(N)ncnc32)[C@H](O)[C@@H]1OP(=O)(O)O [acetyl-CoA],km,Both the Vmax and km values decreased with the addition of GB
